Test in all cases: NCI tumour cell line growth inhibition, 48 h
Test [1] relates to CAKI-1 renal.
Test [2] concerns CCRF-CEM leukemia.
In test [3] the test system is EKVX NSCLC.
The subject of test [4] is HCC-2998 colon.
In test [5] the test system is K-562 leukemia.
Test [6] relates to MCF7 breast.
For test [7], the system named is NCI-H460 lung.
In test [8] the test system is NCI/ADR-RES ovarian.
Test [9] concerns SK-OV-3 ovarian.
Test [10] has as its system T-47D breast.
Test [11] relates to UACC-62 melanoma.

Structures are written as SMILES.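 All cell lines were grown in 96-well plates and treated with compound for 48 hours. Definition used: TGI = concentration required for complete inhibition of growth.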 Bounds are passed on as bounds.

On to `COC(=O)NCCc1[nH]nc2c1C(=O)C=C(Nc1ccccc1)C2=O`, for which the TGI in test [1] is over 100 µM; in [2], 51.1 µM; in test [3], over 100 µM; in test [4], over 100 µM; in test [5], over 100 µM; in [6] it was 31.2 µM. Besides, the TGI is over 100 µM in [7]; 70.3 µM in test [8]; over 100 µM in test [9]; over 100 µM in test [10]; 34.8 µM in [11].
Consider `N#Cc1[nH]c(=O)n(-c2ccc(Cl)cc2)c1N`, for which the TGI in test [1], in [2], in test [3], in [4], in test [5] and in [6] was over 10 µM in each case. Moreover, the TGI in test [7], in test [8], in test [9], in test [10] and in [11] was over 10 µM each time.
`O=C1C2C=CC1C1C(=O)OC(=O)C21` (stereo unspecified): the TGI in [1], in test [2], in test [3], in [4], in test [5] and in [6] was over 100 µM each time. In addition, the TGI in [7], in test [8], in [9], in [10] and in test [11] was over 100 µM each time.
Turning to `NNC(=O)c1c(Cl)c(Cl)c(Cl)c(Cl)c1-c1nc2ccccc2[nH]1`, the TGI came out at 38 µM in test [1]; 54.2 µM in test [2]; 45.3 µM in test [3]; 22.5 µM in test [4]; 26 µM in [5]; 23 µM in test [6]. The TGI in test [7] worked out at 31 µM; in test [8], 59.8 µM; in [9] it was 59.2 µM; in test [10], 24 µM; in [11], 24.7 µM.
Take `CC(C)OP(=O)(CN(C)/C(F)=N\C(F)(F)F)OC(C)C`: the TGI in test [1], in test [2], in test [3], in test [4], in test [5] and in test [6] was over 100 µM throughout. The TGI in [7], in [8], in [9], in [10] and in test [11] was over 100 µM each time.
In the case of `COC(=O)C(CCC1C=CCC1)N=Cc1ccccc1` (stereo unspecified), the TGI in test [1], in test [2], in test [3], in [4], in [5] and in [6] was over 100 µM in each case. The TGI in [7], in [8], in test [9], in [10] and in [11] was over 100 µM throughout.
As for `O=C1OC(c2ccc(O)c(Cl)c2)(c2ccc(O)c(Cl)c2)c2ccc(Br)c3cccc1c23` (tested in a mixture with another compound), the TGI turned out to be 29.2 µM in [1]; 42.3 µM in [2]; 29.3 µM in test [3]; 35 µM in test [4]; 46.2 µM in [5]; 30.6 µM in test [6]. Also, the TGI in [7] turned out to be 34.7 µM; in test [8] it was 32.5 µM; in test [9] it was 32.2 µM; in [10], 13.3 µM; in [11], 26.1 µM.
On to `CN1CCC2(CC1)C(=O)N(N1CCCCCC1)C(=O)N2c1ccccc1`, for which the TGI in test [1], in test [2], in test [3], in test [4], in [5] and in test [6] was over 100 µM each time. The TGI in [7], in test [8], in test [9], in [10] and in test [11] was over 100 µM throughout.
Turning to `CCCN1C(=O)CCC2=C1CCc1c2ccc(Cl)c1Cl`, the TGI in test [1] was over 100 µM; in test [2] it was over 100 µM; in test [3], over 100 µM; in [4] it was 49.8 µM; in test [5], over 100 µM; in [6], over 100 µM. Further, the TGI in test [7] was over 100 µM; in test [8], over 100 µM; in test [9] it was 69.1 µM; in test [10], over 100 µM; in test [11], 5.44 µM.
In the case of `NC1C/C(=N\O)c2c(I)sc(I)c21` (stereo unspecified), the TGI in test [1] is 28.6 µM; in test [2], over 100 µM; in test [3] it was 40.4 µM; in test [4], 38.5 µM; in test [5], over 74.1 µM; in test [6] it was 36 µM. Besides, the TGI worked out at 52 µM in [7]; 43.1 µM in [8]; 30.2 µM in [9]; 52.3 µM in test [10]; 37.1 µM in [11].
Turning to `O=C(CN1CCN(C(=O)OCc2ccccc2)CCN(CC(=O)N2CCCCC2)CCN(C(=O)OCc2ccccc2)CC1)N1CCCCC1`, the TGI in test [1] was 28.9 µM; in test [2] it was over 49.8 µM; in test [3], over 56.7 µM; in test [4], 25.2 µM; in test [5], 32.7 µM; in [6], 44.6 µM. In addition, the TGI is 26.7 µM in [7]; 32.5 µM in [8]; over 52.7 µM in [9]; 38.8 µM in test [10]; 38.8 µM in test [11].
